US9966622B2, “Small organic molecule based flow battery” (President and Fellows of Harvard College, priority 2012, dated 2018)
Values after ≈ are worked out from the molar mass of the structure shown. Values joined by “and” are separate entries in the source; they are usually repeats but may differ in a detail not shown here. Identical values can stand only once. Like-named read-outs stand apart in the source and are kept apart here.

Tests used:
[1] = Half-cell cyclic voltammetry of quinones, E^0 (Example 13); assay type: physicochemical; details: 1 mM in 1 M sulfuric acid, pH 0, glassy carbon, 25 mV/s
Procedure: 1 mM solutions of the quinones listed in the following table were prepared in 1 M sulfuric acid solution. The pH of the solutions was 0. Half-cell electrochemical data were recorded using a working electrode consisting of a flat 3 mm diameter disk of glassy carbon, a coiled platinum wire as a counter electrode, and a Ag/AgCl reference electrode. Cyclic voltammograms were recorded using sweep rates of 25 mV/s.

Aqueous solubility = assay type: physicochemical; details: pH 0, aqueous buffer
[2] = Stability of AQDS to Br2 / HBr by NMR (Example 12); assay type: physicochemical; details: for stability to 2 M / concentrated HBr and Br2: heated to 100° C. for 48 h (two days)
Procedure: 50 mg of 9,10-anthraquinone-2,7-disulfonic acid was dissolved in 0.4 mL of D2O was treated with 100 μL of Br2. The ^1H and ^13C NMR spectra (FIGS. 17A-B and 18A-B) were unchanged from the starting material after standing for 20 hours at 25° C. 50 mg of AQDS was then treated with 1 mL of concentrated HBr and 100 μL of Br2. The reaction was heated to 100° C. for 48 h and evaporated to dryness at that temperature. The resulting solid was fully dissolved in D2O giving unchanged and ^1H and ^13C NMR (FIGS. 17C and 18C); however, the ^1H NMR reference was shifted due to residual acid.

[3] = Cyclic voltammetry of AQDS on glassy carbon (Example 3); assay type: physicochemical; details: 1 mM in 1 M sulfuric acid, glassy carbon disc
Source text: AQDS was subjected to half-cell electrochemical measurements. […] The peak separation of 34 mV was close to the 59 mV/n, where n was the number of electrons involved, expected for a two-electron process.

[4] = Pourbaix diagram of AQDS redox couple vs. pH (Example 5); assay type: physicochemical
Procedure: FIG. 5C is a Pourbaix diagram of AQDS. Solid lines indicate slopes of −59 mV/pH, −30 mV/pH, and 0 mV/pH, corresponding to two-, one-, and zero-proton processes respectively. Dashed lines linearly extrapolate the one- and zero-proton processes to give E^0 values of 18 mV (2 e^−/1 H^+) and −296 mV (2 e^−/0 H^+).
To further understand the AQDS redox behavior, we generated a Pourbaix diagram (FIG. 5C) of the equilibrium potential of the AQDS redox couple vs. pH. Aqueous 1 mM solutions of AQDS disodium salt were prepared and pH buffered using the following chemicals: sulfuric acid (1 M, pH 0), HSO4^−/SO4^2− (0.1 M, pH 1-2), AcOH/AcO^− (0.1 M, pH 2.65-5), H2PO4^−/HPO4^2− (0.1 M, pH 5.3-8), HPO4^2−/PO4^3− (0.1 M, pH 9.28-11.52), and KOH (0.1 M, pH 13). The pH of each solution was adjusted with 1 M H2SO4 or 0.1 M KOH solutions. […] In more basic conditions (7<pH<11), a two-electron, one-proton process occurred, giving a 30 mV/pH slope. The potential became pH-independent at values greater than 11, which indicated a two-electron, zero-proton process.

[5] = Rotating disk electrode measurements of AQDS (Example 4); assay type: physicochemical
Procedure: FIG. 5B is a graph of rotating disk electrode measurements using a glassy carbon electrode in 1 M H2SO4 at eleven rotation rates ranging from 200 (red) to 3600 rpm (dk. green).
FIG. 6 is a Levich plot (current vs. rotation rate) of 1 mM AQDS in 1 M H2SO4. Best fit line has a slope of 0.453(2) μA s^1/2 rad^−1/2.
FIG. 7 is a Koutecký-Levich plot (current^−1 vs. rotation rate^−1/2).
FIG. 8 is a Tafel plot (overpotential vs. log(current)) constructed using the current response in the absence of mass-transport at low overpotentials, extrapolated from the zero-intercept of FIG. 7 (infinite rotation rate). Best fit line is the function y=62(x+4.32). This yields α=0.474(2) and k0=7.2(5)×10^−3 cm s^−1.
The glassy carbon disk in Example 3 was rotated at a variety of rates yields mass-transport limited currents from which the AQDS diffusion coefficient (D=3.8(1)×10^−6 cm^2 s^−1)(compare D in [38]) and kinetic reduction rate constant could be determined (FIGS. 5B, 6, 7, and 8). […] This rate constant was faster than that found for many other species used in flow cells such as V^3+/V^2+, Br2/Br^−, and S4^2−/S2^2− (see Table 2 in [40]). The electrochemical reversibility of the two-electron redox reaction was confirmed by the slope of the Tafel plot (FIG. 8), which gave the transfer coefficient α=0.474, which is close to the value of 0.5 expected for an ideally reversible reaction.

[6] = Half-cell cyclic voltammetry compared with AQDS (Examples 6 and 7); assay type: physicochemical; details: 1 mM in 1 M H2SO4; listed as 1,8-(OH)2-AQDS
[7] = cited from earlier work
[8] = aqueous, no source given; cited from earlier work
[9] = Stability of quinone form in aqueous solution, cyclic voltammetry of catechol (Example 1); assay type: physicochemical; details: 1 N H2SO4
Source text: 1 molal 1,2-ortho-benzohydroquinone (catechol) was oxidized in 1 N H2SO4 at a flat Pt electrode, obtaining the cyclic voltammetry curves shown in FIG. 3A. The sweep starts at (0.2 V, 0 mA/cm^2) and proceeds at 25 mV/s to the right. At about 600 mV vs. Ag/AgCl (the known E^0 is 795 mV vs. SHE), the current density increases as catechol is oxidized to the orthoquinone form. The oxidative current density peaks at about 150 mA/cm^2. The peak and downturn are caused by reactant depletion in a quiescent (non-flowing, non-stirred) electrolyte. In a test at a higher concentration of 3.9 molal (FIG. 3B), we observe asymmetric oxidation and reduction peaks, achieving current densities above 500 mA/cm^2 for the former. The asymmetric shape of the curve in FIG. 3B arises because the quinone form is unstable in aqueous solution. In addition the limited solubility of ortho-benzoquinone (0.06 M) compared to its reduced form precludes symmetric behavior at high concentration.

Standard Reduction Potential E^0 in Volts vs. the standard hydrogen electrode (SHE) [1]	Molecule	other results
0.223 Volts	O=C1c2cccc(S(=O)(=O)O)c2C(=O)c2cccc(S(=O)(=O)O)c21 [Entry 4, 9,10-anthraquinone-1,5-disulfonic acid]	–
0.114 Volts	O=C1c2ccccc2C(=O)c2cc(CS(=O)(=O)O)c(CS(=O)(=O)O)cc21 [Entry 6, 9,10-anthraquinone-2,3-dimethanesulfonic acid]	–
0.118 Volts	O=C1c2ccc(S(=O)(=O)O)c(O)c2C(=O)c2c1ccc(S(=O)(=O)O)c2O [Entry 7, 1,8-dihydroxy-9,10-anthraquinone-2,7-disulfonic acid]	lowering of reduction potential relative to AQDS [6]: ~100 mV and 95 mV
0.116 Volts	O=C1c2ccc(S(=O)(=O)O)c(O)c2C(=O)c2ccc(S(=O)(=O)O)c(O)c21 [Entry 8, 1,5-dihydroxy-9,10-anthraquinone-2,6-disulfonic acid]	–
0.094 Volts	O=C1c2ccccc2C(=O)c2c(O)c(S(=O)(=O)O)cc(O)c21 [Entry 9, 1,4-dihydroxy-9,10-anthraquinone-2-sulfonic acid]	–
0.088 Volts	O=C1c2ccccc2C(=O)c2c(O)c(S(=O)(=O)O)c(O)c(O)c21 [Entry 10, 1,3,4-trihydroxy-9,10-anthraquinone-2-sulfonic acid]	–
0.423 Volts	O=C1C=C(S(=O)(=O)O)c2ccccc2C1=O [Entry 11, 1,2-naphthoquinone-4-sulfonic acid]	–
0.356 Volts	O=C1C=C(S(=O)(=O)O)C(=O)c2ccccc21 [Entry 12, 1,4-naphthoquinone-2-sulfonic acid]	–
0.368 Volts	O=C1C(Cl)=C(S(=O)(=O)O)C(=O)c2ccccc21 [Entry 13, 2-chloro-1,4-naphthoquinone-3-sulfonic acid]	–

Further lines, the molecule ahead of its results:

Molecule	Standard Reduction Potential E^0 in Volts vs. the standard hydrogen electrode (SHE) [1]	other results
2-bromo-1,4-naphthoquinone-3-sulfonic acid [Entry 14]	0.371 Volts	–
O=C1c2ccc(S(=O)(=O)O)cc2C(=O)c2cc(S(=O)(=O)O)ccc21 [Entry 1, 9,10-anthraquinone-2,7-disulfonic acid]	0.213 Volts	solubility (Aqueous solubility): ~1000 mM (≈ 368 mg/mL); stability to 2 M / concentrated HBr and Br2 [2]: no reaction; stability to 2 M / concentrated HBr and Br2 ([2]; listed as 9,10-anthraquinone-2,7-disulfonate): stable; stability to Br2 (1H and 13C NMR spectra) ([2]; in D2O, 20 hours at 25° C.): unchanged; peak separation (cyclic voltammetry) [3]: 34 mV; E^0 (2 e^−/1 H^+), extrapolated ([4]; linear extrapolation of one-proton process): 18 mV; E^0 (2 e^−/0 H^+), extrapolated ([4]; linear extrapolation of zero-proton process): −296 mV; diffusion coefficient D ([5]; 1 mM in 1 M H2SO4, rotating glassy carbon disk): 3.8(1)×10^−6 cm^2 s^−1; kinetic reduction rate constant k0 ([5]; reduction on glassy carbon, 1 M H2SO4): 7.2(5)×10^−3 cm s^−1
O=C1c2ccc(S(=O)(=O)O)cc2C(=O)c2ccc(S(=O)(=O)O)cc21 [Entry 2, 9,10-anthraquinone-2,6-disulfonic acid]	0.212 Volts	–
O=C1c2cccc(S(=O)(=O)O)c2C(=O)c2c1cccc2S(=O)(=O)O [Entry 3, 9,10-anthraquinone-1,8-disulfonic acid]	0.182 Volts	–
O=C1c2ccccc2C(=O)c2cc(S(=O)(=O)O)ccc21 [Entry 5, 9,10-anthraquinone-2-sulfonic acid]	0.171 Volts	–
Oc1ccccc1O [catechol, 1,2-ortho-benzohydroquinone]	–	known E^0 ([7]; vs. SHE): 795 mV
O=C1C=CC=CC1=O [ortho-benzoquinone]	–	solubility [8]: 60 mM (≈ 6.49 mg/mL); stability in aqueous solution [9]: unstable
CC1=C(C)C(=O)C(C)=C(C)C1=O [tetramethylbenzoquinone]	–	redox potential ([7]; aqueous, literature values [28], [29]): 0.040 V and 0.068 V
